Test systems include A549 NSCLC; CAKI-1 renal; COLO 205 colon; M14 melanoma; PC-3 prostate; RPMI-8226 leukemia; RXF 393 renal; SK-MEL-2 melanoma; SK-OV-3 ovarian; SNB-19 CNS.
Holding throughout (assay): NCI tumour cell line growth inhibition, 48 h

Where “and” joins values, the source holds several entries; their conditions need not be identical. Equal entries are not always repeated.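 Step 1: Grow cells in 96-well plates. Step 2: Expose to compound for 48 hours at 5 concentrations. Step 3: Interpolate endpoints linearly; if unreached, use highest concentration. Abbreviation: GI50, concentration required for 50% inhibition of growth. At the TGI there is no net growth.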

On to `N[C@@H](Cc1ccc(N(CCCl)CCCl)cc1)C(=O)O`, for which the GI50 in the test with A549 NSCLC was 23.9 µM and 16.7 µM; with CAKI-1 renal, 2.21 µM and 3.86 µM; in the test on COLO 205 colon it was 23.6 µM and 18.4 µM; in the test with M14 melanoma, 17.3 µM; with PC-3 prostate it was 32.5 µM; in the test on RPMI-8226 leukemia, 19.3 µM and 22.7 µM. Also, the GI50 is 16.9 µM and 15.9 µM in the test with RXF 393 renal; 17.4 µM in the test on SK-MEL-2 melanoma; 19.3 µM and 13.9 µM in the test with SK-OV-3 ovarian; 30.4 µM and 23 µM with SNB-19 CNS. The TGI in the test with A549 NSCLC was > 100 µM and > 90.2 µM and 186 µM; in the test on CAKI-1 renal it was 8.9 µM and 25.4 µM and 67.6 µM; with COLO 205 colon it was > 100 µM and 37.1 µM and 107 µM; in the test with M14 melanoma, > 100 µM and 84.2 µM; in the test with PC-3 prostate, > 100 µM and 129 µM; in the test on RPMI-8226 leukemia, 75.4 µM and > 85 µM and 183 µM. The TGI in the test with RXF 393 renal is 47.1 µM and 32.9 µM and 69.9 µM; in the test on SK-MEL-2 melanoma it was 33.5 µM and 112 µM; in the test on SK-OV-3 ovarian, > 100 µM and 35.6 µM and 85.9 µM; with SNB-19 CNS it was > 100 µM and 41.6 µM and 204 µM.
For the molecule `Nc1nc(-c2ccccc2Cl)cc(-c2ccc(Cl)cc2Cl)n1`, the GI50 in the test with A549 NSCLC is 4.81 µM; in the test with CAKI-1 renal, 9.27 µM; in the test with COLO 205 colon, 3.52 µM; with M14 melanoma, 5.95 µM; with PC-3 prostate, 5.43 µM; in the test on RPMI-8226 leukemia, 3.1 µM. Further, the GI50 with RXF 393 renal is 2.67 µM; with SK-MEL-2 melanoma, 6.1 µM; with SK-OV-3 ovarian, 10.1 µM; in the test with SNB-19 CNS it was 16.1 µM. Further, the TGI was greater than 100 µM in the test with A549 NSCLC; greater than 100 µM in the test with CAKI-1 renal; 15.5 µM in the test with COLO 205 colon; greater than 100 µM in the test on M14 melanoma; greater than 100 µM in the test with PC-3 prostate; 17.6 µM in the test on RPMI-8226 leukemia. For the same molecule, the TGI in the test on RXF 393 renal is 10.7 µM; in the test with SK-MEL-2 melanoma, 44.8 µM; in the test with SK-OV-3 ovarian, 62.3 µM; in the test on SNB-19 CNS, greater than 100 µM.
With `O=c1c(Br)ccc(Br)cc1Br`, the GI50 with A549 NSCLC was 9.02 µM; in the test on CAKI-1 renal, 1.7 µM; in the test on COLO 205 colon, 0.216 µM; in the test on M14 melanoma it was 1.48 µM; in the test on PC-3 prostate, 1.85 µM; in the test on RPMI-8226 leukemia, 0.532 µM. Moreover, the GI50 in the test on RXF 393 renal was 1.65 µM; in the test with SK-MEL-2 melanoma it was 2.39 µM; in the test on SK-OV-3 ovarian, 15.7 µM; in the test with SNB-19 CNS, 11.7 µM. The TGI in the test on A549 NSCLC stood at 31.8 µM; in the test on CAKI-1 renal it was 3.32 µM; in the test on COLO 205 colon, 0.442 µM; in the test on M14 melanoma, 2.91 µM; in the test on PC-3 prostate it was 3.95 µM; in the test with RPMI-8226 leukemia, 2.89 µM. The TGI in the test with RXF 393 renal was determined as 3.06 µM; with SK-MEL-2 melanoma, 5.85 µM; in the test with SK-OV-3 ovarian, 29.2 µM; in the test with SNB-19 CNS it was 25.2 µM.
On to `Cn1cc(C2=C(c3cn(CCCN/C(N)=N\[N+](=O)[O-])c4ccccc34)C(=O)NC2=O)c2ccccc21`, for which the GI50 with A549 NSCLC was 8.52 µM; in the test with CAKI-1 renal, 8.06 µM; in the test with COLO 205 colon it was 1.24 µM; in the test with M14 melanoma it was 4.8 µM; in the test with PC-3 prostate it was 3.36 µM; in the test with RPMI-8226 leukemia, 5.64 µM. For the same molecule, the GI50 is 2 µM in the test with RXF 393 renal, 0.614 µM in the test with SK-MEL-2 melanoma, 3.43 µM in the test on SK-OV-3 ovarian and 4.4 µM with SNB-19 CNS. For the same molecule, the TGI in the test on A549 NSCLC is greater than 25 µM; with CAKI-1 renal it was greater than 25 µM; in the test with COLO 205 colon, 6.44 µM; in the test on M14 melanoma it was 12.3 µM; in the test on PC-3 prostate, 17.2 µM; in the test with RPMI-8226 leukemia, 14.8 µM. Further, the TGI is 7.3 µM in the test on RXF 393 renal, 2.23 µM in the test with SK-MEL-2 melanoma, greater than 20 µM with SK-OV-3 ovarian and 19 µM in the test on SNB-19 CNS.
For the molecule `c1ccc2c(c1)-c1nc3ccccc3cc1C2N1CCOCC1` (stereo not given), the TGI in the test on A549 NSCLC, in the test with CAKI-1 renal, in the test on COLO 205 colon, in the test with M14 melanoma, with PC-3 prostate and in the test with RPMI-8226 leukemia was greater than 100 µM throughout. For the same molecule, the TGI in the test with RXF 393 renal, in the test with SK-MEL-2 melanoma, with SK-OV-3 ovarian and with SNB-19 CNS was greater than 100 µM in each case.
With `CC(NC(=O)C1(N)CCCC1)C(=O)O` (stereo not given), the TGI in the test on A549 NSCLC, with CAKI-1 renal, in the test on COLO 205 colon, with M14 melanoma, with PC-3 prostate and with RPMI-8226 leukemia was greater than 100 µM in each case. Also, the TGI in the test on RXF 393 renal, in the test on SK-MEL-2 melanoma, in the test on SK-OV-3 ovarian and in the test on SNB-19 CNS was greater than 100 µM each time.
On to `COc1ccc(-c2nn(C(=O)c3cc(OC)c(OC)c(OC)c3)c3cc(N)ccc23)cc1`, for which the GI50 with A549 NSCLC is less than 0.0146 µM; with CAKI-1 renal, 0.0145 µM; in the test on COLO 205 colon, 0.0217 µM; in the test with M14 melanoma it was less than 0.0118 µM; in the test with PC-3 prostate, less than 0.0241 µM; in the test on RPMI-8226 leukemia, less than 0.018 µM. Moreover, the GI50 is less than 0.01 µM in the test on RXF 393 renal, 2.55 µM in the test with SK-MEL-2 melanoma, 0.0316 µM in the test with SK-OV-3 ovarian and less than 0.0171 µM in the test on SNB-19 CNS. For the same molecule, the TGI in the test with A549 NSCLC was 3.96 µM; with CAKI-1 renal, 8.39 µM; in the test on COLO 205 colon, 0.0489 µM; with M14 melanoma, 19.5 µM; in the test with PC-3 prostate it was greater than 30.3 µM; in the test on RPMI-8226 leukemia, 1.84 µM. Besides, the TGI is 3.98 µM in the test with RXF 393 renal, 27.6 µM in the test with SK-MEL-2 melanoma, 7.28 µM in the test on SK-OV-3 ovarian and greater than 100 µM with SNB-19 CNS.
On to `CCCCCCCCCCCC(=O)[O][Sn]([CH2]CCC)([CH2]CCC)[CH2]CCC`, for which the GI50 with A549 NSCLC is 0.055 µM; in the test on CAKI-1 renal, 0.0965 µM; in the test with COLO 205 colon, 0.0509 µM; with M14 melanoma, 0.0548 µM; in the test on PC-3 prostate, 0.049 µM; in the test with RPMI-8226 leukemia, 0.0228 µM. The GI50 in the test with RXF 393 renal is 0.0483 µM; with SK-MEL-2 melanoma, 0.0555 µM; in the test on SK-OV-3 ovarian, 0.0617 µM; in the test with SNB-19 CNS, 0.0859 µM. Further, the TGI in the test with A549 NSCLC amounted to 0.185 µM; in the test with CAKI-1 renal it was 0.216 µM; in the test with COLO 205 colon it was 0.122 µM; in the test on M14 melanoma it was 0.142 µM; in the test on PC-3 prostate it was 0.162 µM; in the test with RPMI-8226 leukemia it was 0.098 µM. For the same molecule, the TGI with RXF 393 renal is 0.117 µM; with SK-MEL-2 melanoma, 0.13 µM; in the test on SK-OV-3 ovarian, 0.193 µM; with SNB-19 CNS, 0.228 µM.

For the origin of these results see PubChem BioAssay (NCI).
